According to patent US10336762B2 (priority 2017, dated 2019):

How the values were obtained:
[1] = tested on: TNFα; assay: cells; assay type: cell-based, human; conditions: Homo sapiens, Monocyte, LPS-stimulated human monocytes, TNFα content; read-out: EC50 TNF
[2] = molecular target: IRAK4 enzyme (Homo sapiens (Human), UniProt Q9NWZ3); assay: biochemical; assay type: biochemical; conditions: IRAK4 enzyme, TR-FRET, 500 μM ATP
Sequence of IRAK4 enzyme (Q9NWZ3 whole entry): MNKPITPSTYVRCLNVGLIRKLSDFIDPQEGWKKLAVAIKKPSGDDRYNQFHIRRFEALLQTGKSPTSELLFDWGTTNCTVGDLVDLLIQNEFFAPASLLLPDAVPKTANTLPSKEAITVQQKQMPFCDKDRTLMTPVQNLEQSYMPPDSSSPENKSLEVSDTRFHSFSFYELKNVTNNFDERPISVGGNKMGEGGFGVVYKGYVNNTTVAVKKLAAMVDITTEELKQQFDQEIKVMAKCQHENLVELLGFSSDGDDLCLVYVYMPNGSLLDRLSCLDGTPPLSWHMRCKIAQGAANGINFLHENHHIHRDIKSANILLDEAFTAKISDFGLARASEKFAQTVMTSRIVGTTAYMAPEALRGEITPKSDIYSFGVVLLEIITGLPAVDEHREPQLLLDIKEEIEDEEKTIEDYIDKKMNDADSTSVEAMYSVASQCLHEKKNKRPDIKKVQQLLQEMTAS

Structure (SMILES) | EC50 [1] [nM] | IC50 [2] [nM]
CC(C)(O)[C@H](F)CNC(=O)c1cnc(-c2ccc3cc(C#N)cnn23)cc1Nc1ccc(CN2CCOC2=O)cc1 [Example 201, (R)-6-(3-cyanopyrrolo[1,2-b]pyridazin-7-yl)-N-(2-fluoro-3-hydroxy-3-methylbutyl)-4-((4-((2-oxooxazolidin-3-yl)methyl)phenyl)amino) nicotinamide] | 11 | 1
CC(C)(O)[C@H](F)CNC(=O)c1cnc(-c2ccc3cc(C#N)cnn23)cc1Nc1ccc(CNC(=O)C2CC2)cc1 [Example 202, (R)-6-(3-cyanopyrrolo[1,2-b]pyridazin-7-yl)-4-((4-(cyclopropane-carboxamidomethyl)phenyl)amino)-N-(2-fluoro-3-hydroxy-3-methylbutyl)nicotinamide] | 22 | < 1
CC(C)C(=O)NCc1ccc(Nc2cc(-c3ccc4cc(C#N)cnn34)ncc2C(=O)NC[C@@H](F)C(C)(C)O)cc1 [Example 203, (R)-6-(3-cyanopyrrolo[1,2-b]pyridazin-7-yl)-N-(2-fluoro-3-hydroxy-3-methylbutyl)-4-((4-(isobutyramidomethyl)phenyl)amino) nicotinamide] | 44 | < 1
CCC(=O)NCc1ccc(Nc2cc(-c3ccc4cc(C#N)cnn34)ncc2C(=O)NC[C@@H](F)C(C)(C)O)cc1 [Example 204, (R)-6-(3-cyanopyrrolo[1,2-b]pyridazin-7-yl)-N-(2-fluoro-3-hydroxy-3-methylbutyl)-4-((4-(propionamido-methyl)phenyl)amino)nicotinamide] | 27 | < 1
CC(C)(O)[C@H](F)CNC(=O)c1cnc(-c2ccc3cc(C#N)cnn23)cc1Nc1ccc(CN2CC(F)(F)C2)cc1 [Example 205, (R)-6-(3-cyanopyrrolo[1,2-b]pyridazin-7-yl)-4-((4-((3,3-difluoroazetidin-1-yl)methyl)phenyl)amino)-N-(2-fluoro-3-hydroxy-3-methylbutyl) nicotinamide] | 115 | 1
CC(C)(O)[C@H](F)CNC(=O)c1cnc(-c2ccc3cc(C#N)cnn23)cc1Nc1cnn([C@@H]2CCN(C3COC3)C2)c1 [Example 206, 6-(3-cyanopyrrolo[1,2-b]pyridazin-7-yl)-N-((R)-2-fluoro-3-hydroxy-3-methylbutyl)-4-((1-((R)-1-(oxetan-3-yl)pyrrolidin-3-yl)-1H-pyrazol-4-yl)amino)nicotinamide] | 133 | 1
Cc1ncc(-c2ccc(Nc3cc(-c4ccc5cc(C#N)cnn45)ncc3C(=O)NC[C@@H](F)C(C)(C)O)cc2)o1 [Example 207, (R)-6-(3-cyanopyrrolo[1,2-b]pyridazin-7-yl)-N-(2-fluoro-3-hydroxy-3-methylbutyl)-4-((4-(2-methyloxazol-5-yl)phenyl)amino) nicotinamide] | 96 | 1
CC(C)(O)[C@H](F)CNC(=O)c1cnc(-c2ccc3cc(C#N)cnn23)cc1Nc1cnn([C@@H]2CCNC2)c1 [Example 208, 6-(3-cyanopyrrolo[1,2-b]pyridazin-7-yl)-N-((R)-2-fluoro-3-hydroxy-3-methylbutyl)-4-((1-((R)-pyrrolidin-3-yl)-1H-pyrazol-4-yl)amino) nicotinamide] | 92 | < 1
Cc1nnc(-c2ccc(Nc3cc(-c4ccc5cc(C#N)cnn45)ncc3C(=O)NC[C@@H](F)C(C)(C)O)cc2)o1 [Example 209, (R)-6-(3-cyanopyrrolo[1,2-b]pyridazin-7-yl)-N-(2-fluoro-3-hydroxy-3-methylbutyl)-4-((4-(5-methyl-1,3,4-oxadiazol-2-yl)phenyl)amino) nicotinamide] | 84 | < 1
Cn1cncc1-c1ccc(Nc2cc(-c3ccc4cc(C#N)cnn34)ncc2C(=O)NC[C@@H](F)C(C)(C)O)cc1 [Example 210, (R)-6-(3-cyanopyrrolo[1,2-b]pyridazin-7-yl)-N-(2-fluoro-3-hydroxy-3-methylbutyl)-4-((4-(1-methyl-1H-imidazol-5-yl)phenyl)amino) nicotinamide] | 39 | < 1
CC(=O)NC1(c2ccc(Nc3cc(-c4ccc5cc(C#N)cnn45)ncc3C(=O)NC[C@@H](F)C(C)(C)O)cc2)CC1 [Example 211, (R)-4-((4-(1-acetamidocyclo-propyl)phenyl)amino)-6-(3-cyanopyrrolo[1,2-b]pyridazin-7-yl)-N-(2-fluoro-3-hydroxy-3-methylbutyl)nicotinamide] | 50 | 1
COC(=O)NC1(c2ccc(Nc3cc(-c4ccc5cc(C#N)cnn45)ncc3C(=O)NC[C@@H](F)C(C)(C)O)cc2)CC1 [Example 212, (R)-methyl (1-(4-((2-(3-cyanopyrrolo[1,2-b]pyridazin-7-yl)-5-((2-fluoro-3-hydroxy-3-methylbutyl)carbamoyl)pyridin-4-yl)amino)phenyl)cyclopropyl)carbamate] | 13 | < 1
CC(C)(O)[C@H](F)CNC(=O)c1cnc(-c2ccc3cc(C#N)cnn23)cc1Nc1ccc(N2CCNCC2)nc1 [Example 213, (R)-6-(3-cyanopyrrolo[1,2-b]pyridazin-7-yl)-N-(2-fluoro-3-hydroxy-3-methylbutyl)-4-((6-(piperazin-1-yl)pyridin-3-yl)amino) nicotinamide] | 51 | < 1
COC(=O)NC(C)(C)c1ccc(Nc2cc(-c3ccc4cc(C#N)cnn34)ncc2C(=O)NC[C@@H](F)C(C)(C)O)cc1 [Example 214, (R)-methyl(2-(4-((2-(3-cyanopyrrolo[1,2-b]pyridazin-7-yl)-5-((2-fluoro-3-hydroxy-3-methylbutyl)carbamoyl)pyridin-4-yl)amino)phenyl)propan-2-yl)carbamate] | 36 | 3
CC(=O)NC(C)(C)c1ccc(Nc2cc(-c3ccc4cc(C#N)cnn34)ncc2C(=O)NC[C@@H](F)C(C)(C)O)cc1 [Example 215, (R)-4-((4-(2-acetamido-propan-2-yl)phenyl)amino)-6-(3-cyanopyrrolo[1,2-b]pyridazin-7-yl)-N-(2-fluoro-3-hydroxy-3-methylbutyl)nicotinamide] | 53 | 2
CC(C)(O)[C@H](F)CNC(=O)c1cnc(-c2ccc3cc(C#N)cnn23)cc1Nc1ccc(-c2cnco2)cc1 [Example 216, (R)-6-(3-cyanopyrrolo[1,2-b]pyridazin-7-yl)-N-(2-fluoro-3-hydroxy-3-methylbutyl)-4-((4-(oxazol-5-yl)phenyl)amino) nicotinamide] | 32 | < 1
CC(C)(O)[C@H](F)CNC(=O)c1cnc(-c2ccc3cc(C#N)cnn23)cc1Nc1cncc(OC(F)F)c1 [Example 217, (R)-6-(3-cyanopyrrolo[1,2-b]pyridazin-7-yl)-4-((5-(difluoromethoxy)pyridin-3-yl)amino)-N-(2-fluoro-3-hydroxy-3-methylbutyl)nicotinamide] | 63 | < 1
Cc1nnc(-c2ccc(Nc3cc(-c4ccc5cc(C#N)cnn45)ncc3C(=O)NC[C@@H](F)C(C)(C)O)cc2)[nH]1 [Example 218, (R)-6-(3-cyanopyrrolo[1,2-b]pyridazin-7-yl)-N-(2-fluoro-3-hydroxy-3-methylbutyl)-4-((4-(5-methyl-4H-1,2,4-triazol-3-yl)phenyl)amino) nicotinamide] | 41 | < 1
